Assay results: patent publication US7094911B2, “Biphenyl and biphenyl-analogous compounds as integrin antagonists” (Bayer Aktiengesellschaft, priority 1998, dated 2006)

For O=C(O)C[C@@H](NS(=O)(=O)c1cccc(-c2cccc(NC(=O)N=c3[nH]c4ccccc4[nH]3)c2)c1)c1ccccc1 [Example 4.91], the melting point was 189 °C.
In the case of O=C(Nc1cccc(-c2ccc(C[C@H](NS(=O)(=O)CCCC(F)(F)F)C(=O)O)cc2)c1)NC1CC1 [Example 1.162], the melting point is reported as 202 °C.
O=C(O)[C@H](Cc1ccc(-c2cccc(CNc3ccccn3)c2)cc1)NS(=O)(=O)c1cccs1 [Example 18.9] gave a melting point of over 240 °C.
For CCCNC(=O)Nc1ccc(-c2ccc(OC)c(S(=O)(=O)NC(CC(=O)O)c3ccccc3)c2)cc1 (centres unmarked) [Example 4.98], the melting point was 116 °C.
With O=C(O)CC(NS(=O)(=O)c1cccc(-c2cccc(NC(=O)Nc3nc4ccccc4[nH]3)c2)c1)c1cccnc1 (centres unmarked) [Example 4.41] the melting point was 170 °C.
In the case of O=C(O)CC(NS(=O)(=O)c1cccc(-c2cccc(Nc3c(NCC(F)(F)F)c(=O)c3=O)c2)c1)c1cccnc1 (centres unmarked) [Example 13.11], the melting point is reported as 219 °C (dec.).
With Cc1cc(C)c(S(=O)(=O)NC(Cc2cccc(-c3cccc(NC(=O)NC4CC4)c3)c2)C(=O)O)c(C)c1 (centres unmarked) [Example 1.191] the melting point was 214 °C.
In the case of COc1ccc(-c2ccc(NC(=O)NC(C)C)cc2)cc1S(=O)(=O)NC(CC(=O)O)c1ccccc1 (centres unmarked) [Example 4.68], the melting point is reported as 115 °C.
Compound CCNC(=O)Nc1ccc(-c2ccc(OC)c(S(=O)(=O)NC(CC(=O)O)c3ccccc3)c2)cc1 (centres unmarked) [Example 4.71] has a melting point of 134 °C.
For Cc1cc(C)c(S(=O)(=O)NC(Cc2cccc(-c3cccc(NC(=O)Nc4ccncc4)c3)c2)C(=O)O)c(C)c1 (centres unmarked) [Example 1.194], the melting point was 207 °C.
In the case of COc1ccc(-c2cccc(NC(=O)N=c3[nH]c4ccccc4[nH]3)c2)cc1S(=O)(=O)N[C@H](CC(=O)O)c1ccccc1 [Example 4.88], the melting point is reported as 151 °C (dec.).
In the case of CCCNC(=O)Nc1cccc(-c2cccc(S(=O)(=O)N[C@H](C)C(=O)O)c2)c1 [Example 4.81], the melting point is reported as 126 °C.
Work on CC1(C)C2CC[C@@]1(CS(=O)(=O)N[C@@H](Cc1ccc(-c3cccc(Nc4ncccc4[N+](=O)[O-])c3)cc1)C(=O)O)C(=O)C2 [Example 20.3] yielded a melting point of 207 °C.
CCCNC(=O)Nc1cccc(-c2cccc(S(=O)(=O)N(C)CC(=O)O)c2)c1 [Example 6.12] gave a melting point of 90 °C.
For O=C(O)[C@H](Cc1ccc(-c2cccc(CNc3ccccn3)c2)cc1)NS(=O)(=O)c1ccc(Cl)s1 [Example 18.14], the melting point was over 240 °C.
With Cc1cc(C)c(S(=O)(=O)N[C@@H](Cc2ccc(-c3cccc(NC(=O)Nc4nc5cc(Cl)ccc5o4)c3)cc2)C(=O)O)c(C)c1 [Example 1.195] the melting point was 220 °C.
For O=C(O)CNS(=O)(=O)c1cccc(-c2cccc(Nc3c(NC4CC4)c(=O)c3=O)c2)c1 [Example 13.2], the melting point was 204 °C (dec.).
Cc1cc(C)c(S(=O)(=O)N[C@@H](Cc2ccc(-c3cccc(NC(=O)Nc4cc(C)on4)c3)cc2)C(=O)O)c(C)c1 [Example 1.208] showed a melting point of 189 °C.
In the case of CN(CC(=O)O)S(=O)(=O)c1cccc(-c2cccc(NC(=O)NC3CC3)c2)c1 [Example 6.11], the melting point is reported as 117 °C.
With COc1ccc(-c2cccc(NC(=O)c3ccc[nH]3)c2)cc1S(=O)(=O)NC(CC(=O)O)c1ccccc1 (centres unmarked) [Example 19.3] the melting point was 234 °C.
CN(CC(=O)O)S(=O)(=O)c1cccc(-c2cccc(NC(=O)N=c3[nH]c4ccccc4[nH]3)c2)c1 [Example 6.13] gave a melting point of 184 °C.
Cc1cc(C)c(S(=O)(=O)N[C@@H](Cc2ccc(-c3cccc(N/C(=C/[N+](=O)[O-])NC4CC4)c3)cc2)C(=O)O)c(C)c1 [Example 12.1.5, (2S)-3-(3′-{[(E)-1-(cyclopropylamino)-2-nitroethenyl]amino}[1,1′-biphenyl]-4-yl)-2-[(mesitylsulfonyl)amino]-propanoic acid] showed a melting point of 149 °C.
COc1ccc(-c2cccc(NC(=O)NCC(F)(F)C(F)(F)F)c2)cc1S(=O)(=O)NC(CC(=O)O)c1ccccc1 (centres unmarked) [Example 4.85] showed a melting point of 147 °C.
For COc1ccc(-c2cccc(CNc3nc4ccccc4[nH]3)c2)cc1S(=O)(=O)NC(CC(=O)O)c1ccccc1 (centres unmarked) [Example 18.5], the melting point was over 240 °C.
Compound Cc1cc(C)c(S(=O)(=O)N[C@@H](Cc2ccc(-c3cccc(NC(=O)Nc4nncs4)c3)cc2)C(=O)O)c(C)c1 [Example 1.204] has a melting point of 202 °C.
For O=C(O)CC(NS(=O)(=O)c1cccc(-c2cccc(NC(=O)NC3CC3)c2)c1)c1cccnc1 (centres unmarked) [Example 4.39], the melting point was 144 °C.
In the case of COc1ccc(-c2cccc(Nc3ncccc3N)c2)cc1S(=O)(=O)NC(CC(=O)O)c1ccccc1 (centres unmarked) [Example 20.4], the melting point is reported as over 240 °C.
Compound C[C@@H](NS(=O)(=O)c1cccc(-c2cccc(NC(=O)NCC(F)(F)C(F)(F)F)c2)c1)C(=O)O [Example 4.93] has a melting point of 112 °C.
For O=C(O)[C@H](Cc1ccc(-c2cccc(CNc3ccccn3)c2)cc1)NS(=O)(=O)c1c(F)cccc1F [Example 18.12], the melting point was over 240 °C.
With CCCCNC(=O)Nc1cccc(-c2ccc(OC)c(S(=O)(=O)N[C@H](CC(=O)O)c3ccccc3)c2)c1 [Example 4.87] the melting point was 122 °C (dec.).
For CC1(C)[C@H]2CCC1(CS(=O)(=O)N[C@@H](Cc1ccc(-c3cccc(N/C(=C/[N+](=O)[O-])NCc4ccccn4)c3)cc1)C(=O)O)C(=O)C2 [Example 12.7], the melting point was 126 °C (dec.).
COc1ccc(-c2cccc(NC(=O)c3ncc[nH]3)c2)cc1S(=O)(=O)NC(CC(=O)O)c1ccccc1 (centres unmarked) [Example 19.5] showed a melting point of over 200 °C.
For COc1ccc(-c2cccc(NC(=O)NCc3cccnc3)c2)cc1S(=O)(=O)N[C@H](CC(=O)O)c1ccccc1 [Example 4.89], the melting point was 224 °C (dec.).
Compound COc1ccc(-c2cccc(NC(=O)Nc3nncs3)c2)cc1S(=O)(=O)NC(CC(=O)O)c1ccccc1 (centres unmarked) [Example 4.106] has a melting point of over 240 °C.
For CCCN/C(=N\C#N)Nc1cccc(-c2ccc(C[C@H](NS(=O)(=O)c3c(C)cc(C)cc3C)C(=O)O)cc2)c1 [Example 10.6], the melting point was 184 °C.
In the case of Cc1cc(C)c(S(=O)(=O)N[C@@H](Cc2ccc(-c3cccc(NC(=O)c4ccc[nH]4)c3)cc2)C(=O)O)c(C)c1 [Example 19.2], the melting point is reported as 140 °C (dec.).
Compound Cc1cc(C)c(S(=O)(=O)N[C@@H](Cc2ccc(-c3cccc(NC(=O)Nc4cc(C(C)(C)C)on4)c3)cc2)C(=O)O)c(C)c1 [Example 1.209] has a melting point of 180 °C.
CCCNC(=O)Nc1ccc(-c2cccc(CC(NS(=O)(=O)c3c(C)cc(C)cc3C)C(=O)O)c2)cc1 (centres unmarked) [Example 1.203] showed a melting point of 119 °C.
For Cc1cc(C)c(S(=O)(=O)N[C@@H](Cc2ccc(-c3cccc(NC(=O)/N=c4\[nH]c5ccc(C(=O)O)cc5[nH]4)c3)cc2)C(=O)O)c(C)c1 [Example 1.189], the melting point was 256 °C (dec.).
Cc1cc(C)c(S(=O)(=O)N[C@@H](Cc2ccc(-c3cccc(NC(=O)NCC(F)(F)C(F)(F)F)c3)cc2)C(=O)O)c(C)c1 [Example 1.211] gave a melting point of 126 °C.
With Cc1cc(C)c(S(=O)(=O)NC(Cc2cccc(-c3ccc(NC(=O)N=c4[nH]c5ccccc5[nH]4)cc3)c2)C(=O)O)c(C)c1 (centres unmarked) [Example 1.202] the melting point was 193 °C.
In the case of COc1ccc(-c2cccc(NC(=O)NCc3ccc(C(F)(F)F)cc3)c2)cc1S(=O)(=O)N[C@H](CC(=O)O)c1ccccc1 [Example 4.90], the melting point is reported as 111 °C (dec.).
In the case of O=C(O)CC(NS(=O)(=O)c1cccc(-c2cccc(Nc3c(NC4CC4)c(=O)c3=O)c2)c1)c1ccccc1 (centres unmarked) [Example 13.7], the melting point is reported as 214 °C (dec.).
COc1ccc(-c2cccc(NC(=O)NCC(F)(F)F)c2)cc1S(=O)(=O)NC(CC(=O)O)c1ccccc1 (centres unmarked) [Example 4.100] showed a melting point of over 240 °C.
In the case of CCCCNC(=O)Nc1cccc(-c2cccc(S(=O)(=O)N[C@H](CC(=O)O)c3ccccc3)c2)c1 [Example 4.94], the melting point is reported as 152 °C.
With Cc1cc(C)c(S(=O)(=O)N[C@@H](Cc2ccc(-c3cccc(Nc4c(NCc5ccccc5)c(=O)c4=O)c3)cc2)C(=O)O)c(C)c1 [Example 13.4] the melting point was 226 °C (dec.).
Compound Cc1cc(C)c(S(=O)(=O)N[C@@H](Cc2ccc(-c3cccc(NC(=O)NCc4ccc(C(F)(F)F)cc4)c3)cc2)C(=O)O)c(C)c1 [Example 1.212] has a melting point of 154 °C.
Compound Cc1cc(C)c(S(=O)(=O)N[C@@H](Cc2ccc(-c3cccc(NC(=O)Nc4nccs4)c3)cc2)C(=O)O)c(C)c1 [Example 1.198] has a melting point of 212 °C.
Work on C[C@@H](NS(=O)(=O)c1cccc(-c2cccc(NC(=O)NCc3ccccn3)c2)c1)C(=O)O [Example 4.82] yielded a melting point of 149 °C.
For CC1(C)C2CC[C@@]1(CS(=O)(=O)N[C@@H](Cc1ccc(-c3ccc(NC(=O)NCc4ccccn4)cc3)cc1)C(=O)O)C(=O)C2 [Example 1.213], the melting point was 202 °C.
With Cc1cc(C)c(S(=O)(=O)N[C@@H](Cc2ccc(-c3cccc(NC(=O)NCC(F)(F)F)c3)cc2)C(=O)O)c(C)c1 [Example 1.206] the melting point was 124 °C.
Work on O=C(O)CNS(=O)(=O)c1cccc(-c2cccc(NC(=O)Nc3nc4ccccc4[nH]3)c2)c1 [Example 4.38] yielded a melting point of 172 °C.
CCCCNC(=O)Nc1ccc(-c2ccc(OC)c(S(=O)(=O)NC(CC(=O)O)c3ccccc3)c2)cc1 (centres unmarked) [Example 4.65] showed a melting point of 125 °C.
Work on COc1ccc2nc(NC(=O)Nc3cccc(-c4ccc(C[C@H](NS(=O)(=O)c5c(C)cc(C)cc5C)C(=O)O)cc4)c3)sc2c1 [Example 1.200] yielded a melting point of 225 °C.
With C=CCN/C(=C\[N+](=O)[O-])Nc1cccc(-c2ccc(C[C@H](NS(=O)(=O)CC34CC[C@@H](CC3=O)C4(C)C)C(=O)O)cc2)c1 [Example 12.5] the melting point was 150 °C (dec.).
For COc1ccc(-c2cccc(NC(=O)NCc3ccc(F)cc3)c2)cc1S(=O)(=O)N[C@@H](CC(=O)O)c1ccccc1 [Example 4.97], the melting point was 162 °C.
C[C@@H](NS(=O)(=O)c1cccc(-c2cccc(NC(=O)Nc3ccncc3)c2)c1)C(=O)O [Example 4.84] gave a melting point of 169 °C.
COc1ccc(-c2cccc(NC(=O)/N=c3\[nH]c4ccc(C(=O)O)cc4[nH]3)c2)cc1S(=O)(=O)NC(CC(=O)O)c1ccccc1 (centres unmarked) [Example 4.103] showed a melting point of over 240 °C.
COc1ccc(-c2cccc(NC(=O)NCCSC(F)(F)F)c2)cc1S(=O)(=O)NC(CC(=O)O)c1ccccc1 (centres unmarked) [Example 4.101] showed a melting point of over 240 °C.
